# Test results: patent US9834525B2, “Inhibitors of paxillin function and related compositions and methods” (UNIVERSITY OF TENNESSEE RESEARCH FOUNDATION, priority 2015, dated 2017)
# Key:
# Type in all cases: cell-based, human
# [1] = test system: paxillin (pY118); test: Western blot of VEGF-induced paxillin Y118 phosphorylation in REC; conditions: REC under VEGF; compound (II-4) 500 nM, SU6656 1 μM
# Experimental: (§1) REC, Mel 270, OMM 2.5 under Hepatocyte Growth Factor (HGF) or Vascular Endothelial Growth Factor (VEGF) stimulation conditions: Cell lysates were collected in RIPA lysis buffer (50 mM Tris-HCl, pH 7.4, 150 mM NaCl, 2 mM EDTA, 1% Nonidet P-40, 0.1% SDS) with protease 1× inhibitor cocktail (Roche; Indianapolis, Ind.). Lysates were kept on ice and centrifuged at 10,000×g×10 minutes and total protein was measured using the BCA assay (Pierce, Rockford, Ill.). Protein samples were mixed with 4×LDS loading buffer with 2.5% 2-mercaptoethanol (Sigma-Aldrich), heated to 70° C. for 10 minutes, and loaded on NuPAGE 4-12% Bis-Tris gel (Invitrogen, Carlsbad, Calif.). Immunoblotting was performed with nitrocellulose membranes (Bio-Rad, Hercules, Calif.) at 170-mA start and 110-mA end at 25 V for two hours in NuPAGE transfer buffer (Invitrogen) containing 20% methanol. Membranes were blocked using Odyssey blocking buffer (LI-COR; Lincoln, Nebr.) for one hour at room temperature with gentle shaking Membranes were then incubated at 4° C. with specific primary antibodies (1:1000) overnight. Cellular protein was normalized using rabbit-GAPDH or mouse-α-Tubulin [1:20,000] (Cell Signaling, Danvers, Mass.; LI-COR, respectively). Secondary antibodies (IRDye 800CW goat anti-rabbit and IRDye 680LT goat anti-mouse) [1:10,000] were incubated in the dark at room temperature for 45 minutes. Dual-channel infrared scan and quantitation of immunoblots were conducted using the ODYSSEY Sa infrared imaging system with Image Studio (Ver. 3.1.4) (LI-COR).
# The α4 subunit of the cytoplasmic tail of VLA-4 interacts with the cytoskeletal adaptor paxillin, merging intracellular signaling events that drive cellular proliferation and migration (FIG. 13). Compound (II-4) inhibits phosphorylation of paxillin at Y118 (pY118) in the LD-region that interacts with the α4 subunit of VLA-4. To confirm the inhibition of pY118 of paxillin after use of compound (II-4) retinal endothelial cells (REC) were activated with Vascular Endothelial Growth Factor (VEGF) at 50 ng/mL in the presence or absence (vehicle) of compound (II-4) at a concentration of […] for 4-hrs. […] VEGF-induced pY118 was prevented by treatment with compound (II-4) [VEGF-REC treatment versus untreated, *p<0.005; VEGF-induced versus compound (II-4) treatment, **p<0.05—FIG. 13C].
# To gain insight into the mechanistic basis for this phenotype, the effect of compound (II-4) on the Src/FAK/paxillin/ERK signalsome in RECs under VEGF was examined. […] Next, characterization of the potential of compound (II-4) to affect FA disassembly through inactivation of ERK was explored. […]
# FIG. 13: Targeting the alpha-4 subunit of VLA-4 signaling through inhibition of paxillin. […] Phosphorylation measured by Western Blot. […]
# [2] = test system: retinal endothelial cells (REC); test: VEGF-induced REC proliferation, WST-1 metabolic assay; conditions: Compound (II-4) (500 nM), LY294002 (1004), SU6656 (104), U0126 (104) [sic]
# Experimental: To investigate the potential of compound (II-4) affecting the proliferative capacity of RECs treated with VEGF, proliferation was measured using the metabolic assay based on the tetrazolium salt, WST-1. […] To rule out the possibility that this observation was related to cytotoxicity, RECs were incubated with a high concentration of compound (II-4) (1 μM) for 24 hours. Cells were harvested and apoptosis measured with Annexin-V/Propidium Iodide (PI) staining and analyzed using flow cytometry.
# FIG. 18: REC Proliferation and Flow cytometry analysis of apoptosis in REC. A) VEGF-induced cellular proliferation was assessed using the WST-1 metabolic assay. […] (*P<0.0001). Nuclei were stained with DRAQ5 and imaged to show trend of decreasing proliferation. B) Apoptosis was measured using Annexin V/PI staining Compound (II-4) (1 μM) appears to be non-cytotoxic to retinal endothelial cells after 24 hour incubation (n≈10,000 cells).
# FIG. 21: REC Proliferation. […] (*, # P<0.001; Mean±SD, N=8/group).
# [3] = test system: ERK1/2; test: Western blot of VEGF-induced ERK1/2 phosphorylation in REC; conditions: REC under VEGF; compound (II-4) 500 nM, SU6656 1 μM
# Experimental: as §1, with “Secondary antibodies (IRDye 800CW goat anti-rabbit and IRDye 680LT goat anti-mouse) [1:10,000] were incubated in the dark at room temperature for 45 minutes.” left out, “(LI-COR). […]” for “(LI-COR).”
# [4] = test system: AKT (Ser473); test: Western blot of VEGF-induced AKT phosphorylation in REC; conditions: REC under VEGF; compound (II-4) 500 nM, SU6656 1 μM
# Experimental: as §1, with “Secondary antibodies (IRDye 800CW goat anti-rabbit and IRDye 680LT goat anti-mouse) [1:10,000] were incubated in the dark at room temperature for 45 minutes.” left out, “(LI-COR). […]” for “(LI-COR).”
# [5] = test system: FAK (Y397, Y576/577, Y925); test: Western blot of VEGF-induced FAK phosphorylation in REC; conditions: REC under VEGF; compound (II-4) 500 nM, SU6656 1 μM
# Experimental: as §1, with “Secondary antibodies (IRDye 800CW goat anti-rabbit and IRDye 680LT goat anti-mouse) [1:10,000] were incubated in the dark at room temperature for 45 minutes.” left out, “(LI-COR). […]” for “(LI-COR).”
SMILES,VEGF-induced PaxY118 phosphorylation (FIG. 20) [1],VEGF-induced REC proliferation (FIG. 21) [2],VEGF-dependent ERK1/2 phosphorylation [3],VEGF-induced activation of AKT (P-AKT Ser473) [4],"VEGF-induced FAK activation (Y397, Y925) [5]"
"CN(C)S(=O)(=O)c1ccc2c(c1)/C(=C/c1cc3c([nH]1)CCCC3)C(=O)N2 [SU6656, reference compound]",inhibited,inhibited,Neither SU6656 nor compound (II-4) decreased,inhibited,inhibited
"N#CC(=C(/N)Sc1ccccc1N)/C(C#N)=C(\N)Sc1ccccc1N [U0126, reference compound]",no change in activation of Y118,VEGF-induced REC proliferation was inhibited,,,
